From ChEMBL document CHEMBL1153681 (Bioorg Med Chem Lett, 1992)

Key:
Mu-type opioid receptor = Mu-type opioid receptor (Rattus norvegicus, UniProt P33535)
Description: Evaluated for its affinity towards Opioid receptor mu 1 in rat forebrain by displacing the radioligand [3H]sufentanil.

[1] = target: Delta-type opioid receptor (Rattus norvegicus, UniProt P33533); assay: Evaluated for its affinity towards Opioid receptor delta 1 in rat fore brain by displacing the radioligand [3H]DPDPE.
Mus musculus = species on record: Mus musculus; assay: Evaluated for its ability to inhibit electrically induced contractions in the mouse vas deferens (MVD); type: functional, organism-based
[2] = Ratio of the ability to inhibit electrically induced contractions in the mouse vas deferens (MVD) to that of the guinea pig ileum (GPI); type: functional
Cavia porcellus = species on record: Cavia porcellus; assay: Evaluated for its ability to inhibit electrically induced contractions in the guinea pig ileum (GPI); type: functional, organism-based

Mu-type opioid receptor, sequence (P33535 whole entry): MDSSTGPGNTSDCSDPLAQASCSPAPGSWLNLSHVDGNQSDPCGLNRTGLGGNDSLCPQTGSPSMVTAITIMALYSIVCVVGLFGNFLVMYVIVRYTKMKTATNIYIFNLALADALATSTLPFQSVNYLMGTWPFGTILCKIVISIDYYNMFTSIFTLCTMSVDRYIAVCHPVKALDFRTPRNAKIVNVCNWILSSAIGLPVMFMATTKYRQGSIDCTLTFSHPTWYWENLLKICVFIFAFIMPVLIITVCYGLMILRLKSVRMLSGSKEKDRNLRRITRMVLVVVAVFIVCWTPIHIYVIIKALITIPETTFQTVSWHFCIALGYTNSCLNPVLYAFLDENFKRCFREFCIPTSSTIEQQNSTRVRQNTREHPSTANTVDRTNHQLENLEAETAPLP
Delta-type opioid receptor, sequence (P33533 whole entry): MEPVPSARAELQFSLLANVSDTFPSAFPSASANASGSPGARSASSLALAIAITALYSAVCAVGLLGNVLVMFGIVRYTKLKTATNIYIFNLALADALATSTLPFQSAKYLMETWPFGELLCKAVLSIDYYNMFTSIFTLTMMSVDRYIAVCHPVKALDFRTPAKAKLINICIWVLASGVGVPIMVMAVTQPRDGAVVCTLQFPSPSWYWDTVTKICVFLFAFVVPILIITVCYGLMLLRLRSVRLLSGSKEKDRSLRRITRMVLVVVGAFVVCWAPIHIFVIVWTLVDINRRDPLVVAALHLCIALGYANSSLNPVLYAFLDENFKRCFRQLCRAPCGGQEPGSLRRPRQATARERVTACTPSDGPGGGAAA

Row | Compound | IC50 (Mu-type opioid receptor) | IC50 [1] | IC50 (Mus musculus) | Ratio [2] | IC50 (Cavia porcellus)
1 | C[C@H](NC(=O)[C@@H](N)Cc1ccc(O)cc1)C(=O)N[C@H]1Cc2ccccc2CN(CC(=O)N[C@@H](Cc2ccc(O)cc2)C(=O)N2CCC[C@H]2C(=O)N[C@@H](CO)C(N)=O)C1=O | 11 nM | 17.4 nM | 0.66 nM | 0.06 | 10.8 nM
2 | CC(C)[C@H](NC(=O)[C@H](CC(=O)O)NC(=O)[C@H](Cc1ccccc1)NC(=O)[C@@H](C)NC(=O)[C@@H](N)Cc1ccc(O)cc1)C(=O)N[C@H](C(=O)NCC(N)=O)C(C)C [DELTORPHIN C] | – | – | 0.32 nM | <=0.0001 | ≥ 3000 nM
3 | C[C@@H](NC(=O)[C@@H](N)Cc1ccc(O)cc1)C(=O)N[C@@H](Cc1ccccc1)C(=O)NCC(=O)N[C@@H](Cc1ccc(O)cc1)C(=O)N1CCC[C@H]1C(=O)N[C@@H](CO)C(N)=O [DERMORPHIN] | 2.4 nM | – | – | – | 1.06 nM
